The values that follow come from ChEMBL document CHEMBL4219204, “Structure-based design and discovery of potent and selective KDM5 inhibitors” (Bioorg Med Chem Lett, 2018).

Molecules are shown by their SMILES.

The assay deals with T1, Lysine-specific demethylase 3A (Homo sapiens, UniProt Q9Y4C1).
T1 sequence (Q9Y4C1 whole entry): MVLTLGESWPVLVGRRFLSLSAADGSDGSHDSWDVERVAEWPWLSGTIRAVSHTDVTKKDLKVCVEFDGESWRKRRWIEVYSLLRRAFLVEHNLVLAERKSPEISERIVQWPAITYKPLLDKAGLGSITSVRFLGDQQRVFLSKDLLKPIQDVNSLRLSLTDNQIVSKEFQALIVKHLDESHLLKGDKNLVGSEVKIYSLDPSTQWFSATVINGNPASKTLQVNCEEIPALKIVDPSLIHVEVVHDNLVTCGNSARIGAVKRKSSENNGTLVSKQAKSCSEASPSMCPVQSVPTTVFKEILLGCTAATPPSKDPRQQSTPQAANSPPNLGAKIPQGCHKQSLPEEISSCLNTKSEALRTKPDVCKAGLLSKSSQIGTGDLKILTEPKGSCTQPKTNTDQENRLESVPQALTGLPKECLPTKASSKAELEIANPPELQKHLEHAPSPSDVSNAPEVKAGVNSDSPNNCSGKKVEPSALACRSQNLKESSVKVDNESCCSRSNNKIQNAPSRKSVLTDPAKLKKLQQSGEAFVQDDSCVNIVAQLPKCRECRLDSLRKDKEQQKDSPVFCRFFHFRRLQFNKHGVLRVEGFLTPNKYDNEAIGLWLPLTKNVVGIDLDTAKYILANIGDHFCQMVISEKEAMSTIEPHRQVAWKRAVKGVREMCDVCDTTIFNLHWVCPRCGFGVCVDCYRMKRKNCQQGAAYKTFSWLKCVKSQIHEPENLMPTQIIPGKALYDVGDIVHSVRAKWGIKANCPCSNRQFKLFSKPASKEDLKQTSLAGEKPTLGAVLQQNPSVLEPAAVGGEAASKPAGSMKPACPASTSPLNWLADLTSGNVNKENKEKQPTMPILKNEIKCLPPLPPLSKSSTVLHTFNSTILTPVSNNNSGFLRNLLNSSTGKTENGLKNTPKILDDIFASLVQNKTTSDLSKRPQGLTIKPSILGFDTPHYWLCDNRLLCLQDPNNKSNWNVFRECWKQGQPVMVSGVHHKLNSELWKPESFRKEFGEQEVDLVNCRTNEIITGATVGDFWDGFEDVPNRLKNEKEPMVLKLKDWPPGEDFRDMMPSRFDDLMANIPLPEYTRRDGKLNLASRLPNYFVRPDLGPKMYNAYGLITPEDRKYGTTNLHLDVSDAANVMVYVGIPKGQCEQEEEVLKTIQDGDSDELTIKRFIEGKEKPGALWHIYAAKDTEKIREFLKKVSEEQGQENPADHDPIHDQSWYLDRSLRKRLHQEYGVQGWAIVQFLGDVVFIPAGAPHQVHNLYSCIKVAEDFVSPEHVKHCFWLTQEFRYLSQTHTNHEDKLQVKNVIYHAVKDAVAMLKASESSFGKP
Nature of the assay: Inhibition of KDM3A (unknown origin).

A word on the IC50: it is the point on the concentration scale where inhibition reaches its midpoint. In turn, `Cc1cc(Cl)ccc1COc1ccnn1-c1cc(C(=O)O)ccn1` gave an IC50 of 2300 nM.
